Measurements reported in publication PMC6099630, “Synthesis, Antiviral and Cytotoxic Activity of Novel Terpenyl Hybrid Molecules Prepared by Click Chemistry” (Molecules : A Journal of Synthetic Chemistry and Natural …, 2018).

Key:
[1] = system: HSV-1 B2006 strain (thymidine kinase-deficient, TK−); test: microbe, parasite or virus in culture; assay type: cell-based, herpes simplex virus type 1 (HSV-1); conditions: Human alphaherpesvirus 1, 48 h, read-out: EC50 B2006
Protocol: (§1) The synthetic compounds and acyclovir (ACV, Sigma) were dissolved in dimethylsulfoxide (DMSO) and diluted with Eagle’s minimal essential medium supplemented with 1.5% inactivated fetal bovine serum (FBS) and 50 μg/mL gentamicin (MEM 1.5%).
(§2) Vero and Hep-2 cells were grown in MEM supplemented with 10% inactivated FBS and 50 µg/mL gentamicin and maintained in MEM 1.5%. Raw 264.7 cells were grown in Dulbecco’s Modified Eagle’s Medium (DMEM) supplemented with 10% FBS and 50 µg/mL gentamicin and maintained in DMEM 1.5%. C6 cells were grown in DMEM-F12 supplemented with 2.5% FBS50 µg/mL gentamicin and 15% horse serum (HS) and maintained in DMEM-F12 supplemented with 1.5% FBS. HSV-1 KOS, thymidine kinase-deficient (TK−) B2006 and Field strains of HSV-1 were used and propagated at low multiplicity of infection (m.o.i.) on Vero cells.
(§3) Cells grown in 96-well plates were infected or not with HSV-1 (KOS, Field and B2006 strains) at a m.o.i. of 0.1 PFU/cell. After 1-h adsorption at 37 °C, the inoculum was removed and medium containing or not the compounds was added, in triplicate. […] Then, cells were fixed with 10% formaldehyde for 15 min at room temperature, washed once with distilled water and stained with 0.05% crystal violet in 10% ethanol over 30 min. […] The absorbance of each well was measured on an Eurogenetics MPR-A 4i microplate reader using a test wave-length of 590 nm.

[2] = in vitro; assay type: cell-based; conditions: African green monkey
Protocol: as §1, §2
Cell viability was determined using the tetrazolium salt MTT (3-(4,5-dimethylthiazol-2-yl)-2,5-diphenyltetrazolium bromide, Sigma) according to the manufacturer’s instructions. […] The absorbance was measured on a MPR-A 4i microplate reader (Eurogenetics, Tipperary, Ireland) using a test wavelength of 570 nm and a reference wavelength of 630 nm. Results were expressed as a percentage of absorbance of treated cell cultures with respect to untreated ones. […]

[3] = system: HSV-1 Field strain; test: Cytopathic effect assay, HSV-1 Field; assay type: cell-based, herpes simplex virus type 1 (HSV-1); conditions: Human alphaherpesvirus 1; inhibition of 50% viral cytopathic effect; m.o.i. 0.1 PFU/cell, 48 h p.i.; nonlinear regression
Protocol: as §1, §2, §3

[4] = system: HSV-1 KOS strain; test: Cytopathic effect assay, HSV-1 KOS; assay type: cell-based, herpes simplex virus type 1 (HSV-1); conditions: Human alphaherpesvirus 1; inhibition of 50% viral cytopathic effect; m.o.i. 0.1 PFU/cell, 48 h p.i.; nonlinear regression
Protocol: as §1, §2, §3

## Nc1nc2c(ncn2COCCO)c(=O)[nH]1 [ACV, Acyclovir]
[1]
  EC50: 50 ± 2 µM
[2]
  CC50 at 48 h: > 1000 µM
[3]
  EC50: 73 ± 1 µM
[4]
  EC50: 8.2 ± 1 µM
